Data on three molecules can be found in patent publication US20050119324A1, “Methods of treating atherosclerosis using NF-kB inhibitors” (Wyeth, priority 2003, published 2005).

Data set [1] in a line: Lipoprotein determinations (total cholesterol, VLDL, HDL by FPLC) in ovariectomized apoE KO mice on a high fat diet. It counts as in vivo. The note with it: atherogenic diet 6 weeks, oral dosing in feed. The procedure:
All animal procedures were performed under strict compliance to IACUC guidelines. Four to six-week old female apolipoprotein E-deficient C57/B1J (apo E KO) mice were ovariectomized by the vendor (Taconic) and delivered to Wyeth within 2 days of surgery. The animals were housed in shoe-box cages and were allowed ad lib food and water. After 3 days acclimation, the animals were randomized by weight into 8 groups (N=12 mice per group). The animals were dosed in the feed with the indicated compounds during the entire course of the study. Dosing at the indicated levels was achieved by blending the compounds with a sucrose vehicle (30 g per 2 kg feed) prior to mixing into the feed. Ethinyl estradiol was used as a positive reference compound and was dosed at 12 μg/kg/d. Other groups of animals were dosed with the compounds of Example 3 or Example 5 at either 10 or 25 mg/kg/d. Control animals received vehicle (sucrose) alone in the feed. The quantity of compound added to the feed was based on the food consumption rate and the body weights of the animals, which was determined every week. The feeders employed prevented any spillage, so that the food consumption rate was accurate. The animals were fed a Casein-based rodent chow meal (Purina #5K96M) for the first week of the study. The animals were then challenged with a casein-based high fat (HF) diet for week 2 to week 7 of the study. The HF diet (#591-A) was prepared by Purina and contained 1.5% cholesterol, 20% fat as cocoa butter and contained no cholic acid. At the end of the study period, the animals were euthanized and plasma samples obtained. The aortas were perfused via the left ventricle first with buffered saline and then with neutral buffered 10% formalin solution.
Lipoprotein Determinations—Total cholesterol and triglycerides were determined using enzymatic methods with commercially available kits from Boehringer Mannheim and Wako Biochemicals, respectively, and analyzed with the Boehringer Mannheim Hitachii 911 Analyzer. Separation and quantitation of plasma lipoproteins were performed using FPLC size fractionation. Briefly, 50-100 μl serum was filtered and injected into Superose 12 and Superose 6 columns connected in series and eluted at a constant flow rate using 0.15 M NaCl. Areas of each curve representing VLDL, LDL and HDL were integrated using Waters Millennium™ software, and each lipoprotein fraction was quantified by multiplying the Total Cholesterol value by the relative percent area of each respective chromatogram peak.

Data set [2] deals with apolipoprotein E-deficient C57/B1J (apo E KO) mice. The data set is described as follows: Aortic atherosclerosis quantification (Oil Red O, en face, aortic arch) in ovariectomized apoE KO mice on a high fat diet. It counts as in vivo. The conditions noted are these: atherogenic diet 6 weeks, oral dosing in feed, EE 12 μg/kg/d, Examples 3 or 5 at 10 or 25 mg/kg/d, N=12. As for the experimental part: All animal procedures were performed under strict compliance to IACUC guidelines. Four to six-week old female apolipoprotein E-deficient C57/B1J (apo E KO) mice were ovariectomized by the vendor (Taconic) and delivered to Wyeth within 2 days of surgery. The animals were housed in shoe-box cages and were allowed ad lib food and water. After 3 days acclimation, the animals were randomized by weight into 8 groups (N=12 mice per group). The animals were dosed in the feed with the indicated compounds during the entire course of the study. Dosing at the indicated levels was achieved by blending the compounds with a sucrose vehicle (30 g per 2 kg feed) prior to mixing into the feed. Ethinyl estradiol was used as a positive reference compound and was dosed at 12 μg/kg/d. […] The quantity of compound added to the feed was based on the food consumption rate and the body weights of the animals, which was determined every week. […]
Aortic Atherosclerosis Quantification-The mice were euthanized by anesthesia overdose and the vascular tree was perfused first with 2 ml phosphate buffered saline (pH 7.4), then with 2 ml formalin. For quantification of aortic lesions, aortas were carefully isolated and placed in formalin fixative for 48-72 hours before handling. […] The lesions were quantified en face after staining along the aortic arch using the Image-Pro Plus, Media Cybernetics software. […]

SMILES strings stand for the structures.

As to `CC1c2cc(F)ccc2-c2ccccc2N1S(=O)(=O)c1ccc(O)cc1` (stereo not shown) [Example 3, 4-[(8-Fluoro-6-methylphenanthridin-5(6H)-yl)sulfonyl]phenol], the melting point worked out at 188 °C. Also, in data set [1], the “VLDL-C (FIG. 2)” value is listed as “increase”, the “serum HDL-C (FIG. 2)” value is “significantly lower” and the “serum total cholesterol (FIG. 2)” value is listed as “no effect”. Besides, the “extent of aortic fatty streak involvement” value in data set [2] was “significant decrease”.
`COc1cc(OC)cc(N2CCN(C(=O)[C@](C)(C#N)[C@H](c3ccccc3OC)c3cccc4ccccc34)CC2)c1` [Example 4, (S)-3-[4-(3,5-dimethoxyphenyl)piperazin-1-yl]-2-[(S)-(2-methoxyphenyl)(1-naphthyl)methyl]-2-methyl-3-oxopropanenitrile] returned a melting point of 186 to 188 °C.
For `COc1ccccc1[C@H](c1cccc2ccccc12)[C@@](C)(C#N)C(=O)N1CCC(c2cccc(C(F)(F)F)c2)CC1` [Example 5, (S,S)-3-(2-methoxyphenyl)-2-methyl-3-(1-naphthyl)-2-({4-[3-(trifluoromethyl)phenyl]piperidin-1-yl}carbonyl)propanenitrile], in data set [1], the “VLDL-C (FIG. 2)” value is on record as “increase”, the “serum HDL-C (FIG. 2)” value is “significantly lower” and the “serum total cholesterol (FIG. 2)” value is recorded as “no effect”. Besides, the “extent of aortic fatty streak involvement” value in data set [2] is “significant decrease”.
